The values below come from PubChem BioAssay AID238 (DTP/NCI, 2004).

SMILES strings stand for the structures. Several values for one entry are separate records, joined by “and”; a condition that tells them apart may be missing. Equal entries are not always repeated. Toxic doses and inconclusive results are not listed.

This experiment deals with CAF1 mice, leiomyosarcoma No.2 ip, survival T/C%. Nature of the experiment: NCI In Vivo Anticancer Drug Screen. Data for tumor model Leiomyosarcoma (No. 2) (intraperitoneal) in CAF1 mice. As to conditions: endpoint: mean survival time, higher = longer survival. As to the method:
The antitumor activity of compounds was measured in mice bearing transplantable tumors. Survival or tumor size were measured and the results are expressed as the measurement made in the treated group (T) divided by the measurement made in the vehicle treated control group (C). The tumor model used in this assay is Leiomyosarcoma (No. 2) (intraperitoneal) in CAF1 mice

The mark [1] stands for this setting: dose: 0.25 mg/kg/injection, schedule: Q01DX010 (ip), vehicle: saline.
Where [2] appears, read: dose: 0.5 mg/kg/injection, schedule: Q01DX010 (ip), vehicle: saline.
Setting [3] is: dose: 2.5 mg/kg/injection, schedule: Q01DX010 (ip), vehicle: saline.
Where [4] appears, read: dose: 5.0 mg/kg/injection, schedule: Q01DX010 (ip), vehicle: saline.
[5] abbreviates: dose: 10.0 mg/kg/injection, schedule: Q01DX010 (ip), vehicle: saline.
Where [6] appears, read: dose: 20.0 mg/kg/injection, schedule: Q01DX010 (ip), vehicle: saline.
Where [7] appears, read: dose: 250.0 micrograms/kg/injection, schedule: Q01DX010 (ip), vehicle: saline.
Where [8] appears, read: dose: 500.0 micrograms/kg/injection, schedule: Q01DX010 (ip), vehicle: saline.
[9] abbreviates: dose: 6.25 mg/kg/injection, schedule: Q01DX010 (ip), vehicle: saline.
[10] abbreviates: dose: 12.5 mg/kg/injection, schedule: Q01DX010 (ip), vehicle: saline.
Setting [11] is: dose: 1.25 mg/kg/injection, schedule: Q01DX010 (ip), vehicle: saline.
The mark [12] stands for this setting: dose: 40.0 mg/kg/injection, schedule: Q01DX010 (ip), vehicle: saline.
Setting [13] is: dose: 80.0 mg/kg/injection, schedule: Q01DX010 (ip), vehicle: saline.
The mark [14] stands for this setting: dose: 1.0 mg/kg/injection, schedule: Q01DX010 (ip), vehicle: saline.
Setting [15] is: dose: 2.0 mg/kg/injection, schedule: Q01DX010 (ip), vehicle: saline.
Setting [16] is: dose: 25.0 mg/kg/injection, schedule: Q01DX010 (ip), vehicle: saline.
[17] abbreviates: dose: 50.0 mg/kg/injection, schedule: Q01DX010 (ip), vehicle: saline.
The mark [18] stands for this setting: dose: 100.0 mg/kg/injection, schedule: Q01DX010 (ip), vehicle: saline.
Setting [19] is: dose: 200.0 mg/kg/injection, schedule: Q01DX010 (ip), vehicle: saline.
[20] abbreviates: dose: 400.0 mg/kg/injection, schedule: Q01DX010 (ip), vehicle: saline.
The mark [21] stands for this setting: dose: 62.5 mg/kg/injection, schedule: Q01DX010 (ip), vehicle: saline.
The mark [22] stands for this setting: dose: 125.0 mg/kg/injection, schedule: Q01DX010 (ip), vehicle: saline.
[23] abbreviates: dose: 3.13 mg/kg/injection, schedule: Q01DX010 (ip), vehicle: saline.
Where [24] appears, read: dose: 15.6 mg/kg/injection, schedule: Q01DX010 (ip), vehicle: saline.
The mark [25] stands for this setting: dose: 31.3 mg/kg/injection, schedule: Q01DX010 (ip), vehicle: saline.

For `C1CN1c1nc(N2CC2)nc(N2CC2)n1`, the T/C reads like this: (dose: 0.13 mg/kg/injection, schedule: Q01DX010 (ip), vehicle: saline) 117 % of control; under setting [1], 121 % of control; under setting [2], 196 % of control and 233 % of control.

As to `S=P(N1CCOCC1)(N1CC1)N1CC1`, the T/C is 96 % of control and 104 % of control under setting [3]; 116 % of control and 117 % of control under setting [4]; 153 % of control and 179 % of control under setting [5]; 164 % of control under setting [6].

As for `O[C@H](CN1CC1)[C@@H](O)CN1CC1`, the T/C runs as follows: (dose: 125.0 micrograms/kg/injection, schedule: Q01DX010 (ip), vehicle: saline) 150 % of control; under setting [7], 179 % of control; under setting [8], 204 % of control.

Regarding `O=C(O)CCCc1ccc(N(CCCl)CCCl)cc1`, the T/C was 153 % of control and 279 % of control under setting [9]; 203 % of control and 225 % of control under setting [10].

`Oc1cc(CN(CCCl)CCCl)c(O)cc1CN(CCCl)CCCl`: the T/C is, setting by setting: (dose: 0.31 mg/kg/injection, schedule: Q01DX010 (ip), vehicle: saline) 162 % of control; (dose: 0.63 mg/kg/injection, schedule: Q01DX010 (ip), vehicle: saline) 159 % of control; under setting [11], 159 % of control and 175 % of control and 184 % of control; under setting [3], 186 % of control; under setting [4], 118 % of control.

For `NC(Cc1ccc(N(CCCl)CCCl)cc1)C(=O)O` (stereo unspecified), the T/C is 191 % of control and 265 % of control under setting [3]; 166 % of control and 207 % of control under setting [4]; 150 % of control and 258 % of control under setting [5]; 192 % of control under setting [6].

`Cn1c(N)nc2nc[nH]c2c1=S`: the T/C was 100 % of control under setting [5], 120 % of control under setting [6], 104 % of control under setting [12] and 108 % of control under setting [13].

With `CC(=O)NC1=C(N2CC2)C(=O)C(NC(C)=O)=C(N2CC2)C1=O`, the T/C reads like this: under setting [1], 163 % of control; under setting [2], 222 % of control; under setting [14], 300 % of control; under setting [15], 100 % of control; under setting [7], 195 % of control; under setting [8], 195 % of control. For the setting “dose: 1000.0 micrograms/kg/injection, schedule: Q01DX010 (ip), vehicle: saline”, the T/C was 300 % of control.

For `C=CC(CN1CC1)OC(C)=O` (stereo unspecified), the T/C reads like this: under setting [15], 104 % of control; (dose: 8.0 mg/kg/injection, schedule: Q01DX010 (ip), vehicle: saline) 176 % of control.

For `CN(C)c1ccc(/C=C/c2ccnc3ccccc23)cc1`, the T/C under setting [4] was 96 % of control and 112 % of control; the T/C under setting [5] is 112 % of control; the T/C under setting [6] was 112 % of control; the T/C under setting [12] was 100 % of control.

Take `CS(=O)(=O)OCCCCOS(C)(=O)=O`: the T/C by setting is: under setting [9], 100 % of control; under setting [10], 96 % of control and 123 % of control; under setting [16], 103 % of control; under setting [17], 86 % of control.

With `CCCNc1ncnc2[nH]ncc12`, the T/C under setting [9] was 114 % of control; the T/C under setting [10] was 88 % of control and 90 % of control.

In the case of `CN(C)/N=N/c1nc[nH]c1C(N)=O`, the T/C was 109 % of control under setting [16]; 109 % of control and 113 % of control under setting [17]; 118 % of control under setting [18]; 163 % of control under setting [19]; 86 % of control under setting [20].

Regarding `N=C(N)c1ccc(Nc2ccc(C(=N)N)cc2)cc1`, the T/C was 108 % of control (dose: 3.0 mg/kg/injection, schedule: Q01DX010 (ip), vehicle: saline); 104 % of control (dose: 6.0 mg/kg/injection, schedule: Q01DX010 (ip), vehicle: saline); 100 % of control (dose: 12.0 mg/kg/injection, schedule: Q01DX010 (ip), vehicle: saline).

`C=C1C[C@H]2[C@@H]3C=C(C)C4=CC(=O)CC[C@]4(C)[C@H]3CC[C@]2(C)[C@@]1(OC(C)=O)C(C)=O`: the T/C was 113 % of control (dose: 62.5 mg/kg/injection, schedule: Q01DX010 (sc), vehicle: steriod suspending solution); 102 % of control (dose: 125.0 mg/kg/injection, schedule: Q01DX010 (sc), vehicle: steriod suspending solution); 89 % of control (dose: 250.0 mg/kg/injection, schedule: Q01DX010 (sc), vehicle: steriod suspending solution); 94 % of control (dose: 500.0 mg/kg/injection, schedule: Q01DX010 (sc), vehicle: steriod suspending solution).

Consider `O=c1[nH]cc(F)c(=O)[nH]1`, for which the T/C is 195 % of control under setting [4]; 213 % of control and 227 % of control under setting [5]; 181 % of control and 186 % of control under setting [6].

For the compound `OCC1OC(n2cnc3c(=S)nc[nH]c32)C(O)C1O` (stereo unspecified), the T/C is 161 % of control and 248 % of control under setting [6]; 153 % of control under setting [13]; 87 % of control (dose: 160.0 mg/kg/injection, schedule: Q01DX010 (ip), vehicle: saline).

For the compound `O=c1cn[nH]c(=O)[nH]1`, the T/C by setting is: under setting [21], 114 % of control; under setting [22], 90 % of control and 106 % of control; (dose: 250.0 mg/kg/injection, schedule: Q01DX010 (ip), vehicle: saline) 92 % of control and 107 % of control; (dose: 500.0 mg/kg/injection, schedule: Q01DX010 (ip), vehicle: saline) 96 % of control.

Regarding `O=NN(CCCl)C(=O)NCCCl`, the T/C is, setting by setting: under setting [23], 300 % of control; under setting [9], 258 % of control and 300 % of control; under setting [10], 115 % of control and 120 % of control.

With `CCn1cnc2c(=S)nc[nH]c21`, the T/C is 100 % of control and 108 % of control under setting [24]; 96 % of control and 100 % of control under setting [25]; 100 % of control and 119 % of control under setting [21]; 112 % of control under setting [22].

Consider `CCCCNc1ncnc2c1cnn2C`, for which the T/C is 92 % of control under setting [24]; 89 % of control and 103 % of control under setting [25]; 90 % of control and 112 % of control under setting [21].

Take `C[C@]12C=CC(=O)C=C1CC[C@@H]1[C@@H]2[C@@H](O)C[C@@]2(C)[C@H]1CC[C@]2(O)C(=O)CO`: the T/C is 86 % of control and 107 % of control (dose: 12.5 mg/kg/injection, schedule: Q01DX010 (sc), vehicle: steriod suspending solution); 92 % of control and 93 % of control (dose: 25.0 mg/kg/injection, schedule: Q01DX010 (sc), vehicle: steriod suspending solution); 100 % of control and 107 % of control (dose: 50.0 mg/kg/injection, schedule: Q01DX010 (sc), vehicle: steriod suspending solution).

For `CS(=O)(=O)OCCN(CCOS(C)(=O)=O)c1ccc(N=O)cc1`, the T/C was 221 % of control under setting [1], 173 % of control under setting [2] and 113 % of control under setting [14].

As for `CS(=O)(=O)OCCC(=O)N1CCN(C(=O)CCOS(C)(=O)=O)CC1`, the T/C under setting [10] was 172 % of control, the T/C under setting [16] is 224 % of control, the T/C under setting [17] is 232 % of control and the T/C under setting [18] is 304 % of control.

`Nc1nc2n[nH]nc2c(=O)[nH]1`: the T/C by setting is: (dose: 25.0 mg/kg/injection, schedule: Q01DX010 (ip), vehicle: alkali diluted with saline) 188 % of control and 225 % of control; under setting [16], 253 % of control; (dose: 50.0 mg/kg/injection, schedule: Q01DX010 (ip), vehicle: alkali diluted with saline) 180 % of control and 250 % of control; under setting [17], 186 % of control; (dose: 100.0 mg/kg/injection, schedule: Q01DX010 (ip), vehicle: alkali diluted with saline) 190 % of control and 246 % of control; (dose: 200.0 mg/kg/injection, schedule: Q01DX010 (ip), vehicle: alkali diluted with saline) 185 % of control.

For the compound `O=c1cnn(C2OC(CO)C(O)C2O)c(=O)[nH]1` (stereo unspecified), the T/C by setting is: under setting [19], 104 % of control and 107 % of control; under setting [20], 104 % of control and 107 % of control; (dose: 800.0 mg/kg/injection, schedule: Q01DX010 (ip), vehicle: saline) 107 % of control and 112 % of control.

With `N=[N+]=CC(=O)OCC(N)C(=O)O` (stereo unspecified), the T/C under setting [23] is 96 % of control, the T/C under setting [9] is 104 % of control and the T/C under setting [16] was 96 % of control.

As to `O=C(O)c1[nH]c(=O)[nH]c(=O)c1F`, the T/C was 112 % of control under setting [11], 112 % of control under setting [3], 120 % of control under setting [4] and 108 % of control under setting [5].

As to `CCN(CC)CCNc1ccc(C)c2sc3ccccc3c(=O)c12`, the T/C runs as follows: under setting [10], 116 % of control; under setting [16], 100 % of control and 116 % of control; under setting [17], 103 % of control; under setting [18], 154 % of control.
